From patent US9249129B2, “Morpholino substituted urea derivatives as mTOR inhibitors” (CELLZOME LIMITED, priority 2010, dated 2016)

Columns and labels:
[1] = biological target: T1, kinases (kinome) (Homo sapiens, UniProt Q14680); assay: kinobeads assay with mass spectrometry detection of kinases (kinase selectivity profile); assay type: binding; details: MELK (CAMK), IPI00006471
T1 construct: determined in kinobeads assays with mass spectrometry detection of kinases as described previously; endogenous in cells; host or cells: cell lysate
T1 sequence (Q14680 whole entry): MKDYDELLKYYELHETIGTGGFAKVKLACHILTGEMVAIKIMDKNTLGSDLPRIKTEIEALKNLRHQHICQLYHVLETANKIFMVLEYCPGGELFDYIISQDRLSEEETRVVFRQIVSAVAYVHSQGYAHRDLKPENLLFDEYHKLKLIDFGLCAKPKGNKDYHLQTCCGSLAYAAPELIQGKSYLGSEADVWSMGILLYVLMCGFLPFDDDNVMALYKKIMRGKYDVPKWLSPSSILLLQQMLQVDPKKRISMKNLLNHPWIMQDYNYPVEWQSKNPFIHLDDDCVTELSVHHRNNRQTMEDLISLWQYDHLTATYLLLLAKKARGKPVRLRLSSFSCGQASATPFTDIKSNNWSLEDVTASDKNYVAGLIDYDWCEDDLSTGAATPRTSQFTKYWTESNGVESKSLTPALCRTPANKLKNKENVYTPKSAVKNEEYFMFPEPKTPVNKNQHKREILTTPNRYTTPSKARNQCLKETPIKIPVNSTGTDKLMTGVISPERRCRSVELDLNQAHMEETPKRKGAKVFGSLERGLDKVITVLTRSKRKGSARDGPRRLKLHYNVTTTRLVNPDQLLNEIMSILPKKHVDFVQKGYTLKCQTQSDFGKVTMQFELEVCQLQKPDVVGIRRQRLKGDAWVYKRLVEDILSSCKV
From the text: (§1) The protein kinase complement of the human genome (the kinome) was described previously (Manning et al., 2002. Science 298(5600):1912-1934). Sequence accession numbers are defined by the International Protein Index (IPI) (Kersey et al., 2004. Proteomics 4(7):1985-1988).

[2] = biological target: T2, kinases (kinome) (Homo sapiens, UniProt P25440); assay: as above; assay type: binding; details: BRD2 (Atypical), IPI00440502
T2 construct: determined in kinobeads assays with mass spectrometry detection of kinases as described previously; endogenous in cells; host or cells: cell lysate
T2 sequence (P25440 whole entry): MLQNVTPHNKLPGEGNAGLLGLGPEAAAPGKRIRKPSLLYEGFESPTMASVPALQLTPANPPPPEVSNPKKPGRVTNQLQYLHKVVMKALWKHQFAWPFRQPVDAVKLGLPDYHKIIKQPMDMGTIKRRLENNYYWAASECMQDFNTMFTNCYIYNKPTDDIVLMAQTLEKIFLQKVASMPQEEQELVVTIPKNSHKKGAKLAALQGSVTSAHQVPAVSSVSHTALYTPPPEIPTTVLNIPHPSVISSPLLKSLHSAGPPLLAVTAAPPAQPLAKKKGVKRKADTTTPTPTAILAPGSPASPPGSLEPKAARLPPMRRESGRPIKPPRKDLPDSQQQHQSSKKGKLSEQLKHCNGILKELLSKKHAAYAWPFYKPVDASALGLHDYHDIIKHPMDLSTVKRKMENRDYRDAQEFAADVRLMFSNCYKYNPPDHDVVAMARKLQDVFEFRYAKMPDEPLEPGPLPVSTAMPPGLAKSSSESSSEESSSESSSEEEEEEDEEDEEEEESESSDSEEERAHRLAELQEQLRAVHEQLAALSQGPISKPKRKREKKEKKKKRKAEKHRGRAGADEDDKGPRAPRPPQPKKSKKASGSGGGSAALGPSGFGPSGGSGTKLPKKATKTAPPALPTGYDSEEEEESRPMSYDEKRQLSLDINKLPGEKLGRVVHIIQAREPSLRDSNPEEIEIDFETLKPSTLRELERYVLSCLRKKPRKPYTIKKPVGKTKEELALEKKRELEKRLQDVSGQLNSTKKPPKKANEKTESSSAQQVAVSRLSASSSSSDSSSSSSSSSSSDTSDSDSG
From the text: as §1

[3] = biological target: T3, kinases (kinome) (Homo sapiens, UniProt P50750); assay: as above; assay type: binding; details: CDK9 (CMGC), IPI00552413
T3 construct: determined in kinobeads assays with mass spectrometry detection of kinases as described previously; endogenous in cells; host or cells: cell lysate
T3 sequence (P50750 whole entry): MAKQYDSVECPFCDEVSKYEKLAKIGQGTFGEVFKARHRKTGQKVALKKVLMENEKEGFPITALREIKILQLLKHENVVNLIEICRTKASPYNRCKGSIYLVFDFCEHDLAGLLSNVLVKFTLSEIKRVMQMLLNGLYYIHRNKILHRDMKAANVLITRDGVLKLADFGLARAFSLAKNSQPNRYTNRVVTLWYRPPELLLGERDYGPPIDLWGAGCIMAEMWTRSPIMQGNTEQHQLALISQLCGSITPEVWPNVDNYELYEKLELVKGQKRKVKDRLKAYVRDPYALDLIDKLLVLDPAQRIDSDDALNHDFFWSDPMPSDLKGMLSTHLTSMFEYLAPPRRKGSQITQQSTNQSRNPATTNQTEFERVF
From the text: as §1

[4] = biological target: T4, kinases (kinome) (Homo sapiens, UniProt P53667); assay: as above; assay type: binding; details: LIMK1 (TKL), IPI00291702
T4 construct: determined in kinobeads assays with mass spectrometry detection of kinases as described previously; endogenous in cells; host or cells: cell lysate
T4 sequence (P53667 whole entry): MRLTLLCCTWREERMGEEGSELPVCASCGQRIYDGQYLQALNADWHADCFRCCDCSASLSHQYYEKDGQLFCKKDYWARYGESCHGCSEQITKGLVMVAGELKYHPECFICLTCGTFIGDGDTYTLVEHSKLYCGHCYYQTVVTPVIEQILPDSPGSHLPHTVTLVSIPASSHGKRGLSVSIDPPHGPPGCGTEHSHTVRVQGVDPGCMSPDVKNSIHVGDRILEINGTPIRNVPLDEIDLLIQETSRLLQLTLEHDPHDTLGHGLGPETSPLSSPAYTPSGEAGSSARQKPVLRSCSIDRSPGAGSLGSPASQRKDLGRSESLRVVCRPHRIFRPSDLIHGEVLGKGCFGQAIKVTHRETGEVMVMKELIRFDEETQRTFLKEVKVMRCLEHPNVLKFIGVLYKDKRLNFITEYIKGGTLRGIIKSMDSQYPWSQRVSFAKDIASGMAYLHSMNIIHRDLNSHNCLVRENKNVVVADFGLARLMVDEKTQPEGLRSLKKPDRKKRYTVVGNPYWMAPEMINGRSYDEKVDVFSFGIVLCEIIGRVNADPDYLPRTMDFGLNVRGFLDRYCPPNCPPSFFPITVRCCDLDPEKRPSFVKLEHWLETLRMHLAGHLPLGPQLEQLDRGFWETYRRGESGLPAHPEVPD
From the text: as §1

[5] = biological target: T5, kinases (kinome) (Homo sapiens, UniProt P12931); assay: as above; assay type: binding; details: SRC (TK), IPI00328867
T5 construct: determined in kinobeads assays with mass spectrometry detection of kinases as described previously; endogenous in cells; host or cells: cell lysate
T5 sequence (P12931 whole entry): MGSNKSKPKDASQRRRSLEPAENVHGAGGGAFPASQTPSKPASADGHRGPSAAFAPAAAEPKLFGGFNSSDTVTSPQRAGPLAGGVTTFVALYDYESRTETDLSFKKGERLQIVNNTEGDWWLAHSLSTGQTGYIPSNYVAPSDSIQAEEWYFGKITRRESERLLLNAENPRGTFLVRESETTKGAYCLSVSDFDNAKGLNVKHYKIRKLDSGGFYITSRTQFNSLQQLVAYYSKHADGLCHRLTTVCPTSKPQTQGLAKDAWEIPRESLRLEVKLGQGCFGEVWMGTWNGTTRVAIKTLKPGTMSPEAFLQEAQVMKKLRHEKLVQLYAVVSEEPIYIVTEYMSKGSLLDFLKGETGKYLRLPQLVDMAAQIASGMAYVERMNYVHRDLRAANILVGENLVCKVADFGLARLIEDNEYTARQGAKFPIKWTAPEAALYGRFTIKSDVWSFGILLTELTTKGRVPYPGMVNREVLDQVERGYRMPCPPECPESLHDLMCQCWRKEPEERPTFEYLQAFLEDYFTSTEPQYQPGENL
From the text: as §1

[6] = biological target: T6, kinases (kinome) (Homo sapiens, UniProt Q13555); assay: as above; assay type: binding; details: CaMK2g (CAMK), IPI00908444
T6 construct: determined in kinobeads assays with mass spectrometry detection of kinases as described previously; endogenous in cells; host or cells: cell lysate
T6 sequence (Q13555 whole entry): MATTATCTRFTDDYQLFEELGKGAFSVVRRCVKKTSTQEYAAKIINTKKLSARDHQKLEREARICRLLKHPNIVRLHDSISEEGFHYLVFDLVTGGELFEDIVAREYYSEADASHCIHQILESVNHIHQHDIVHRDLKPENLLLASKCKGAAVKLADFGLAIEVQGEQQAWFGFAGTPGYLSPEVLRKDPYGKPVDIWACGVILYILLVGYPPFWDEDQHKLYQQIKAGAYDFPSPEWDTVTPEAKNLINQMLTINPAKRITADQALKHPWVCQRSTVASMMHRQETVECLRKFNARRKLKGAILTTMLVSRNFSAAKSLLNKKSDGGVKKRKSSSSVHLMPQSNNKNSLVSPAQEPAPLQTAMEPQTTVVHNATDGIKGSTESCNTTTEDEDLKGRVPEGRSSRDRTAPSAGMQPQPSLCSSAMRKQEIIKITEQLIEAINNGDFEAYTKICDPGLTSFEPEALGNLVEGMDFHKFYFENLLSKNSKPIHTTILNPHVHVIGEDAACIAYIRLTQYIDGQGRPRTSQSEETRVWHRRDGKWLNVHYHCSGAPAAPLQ
From the text: as §1

[7] = biological target: T7, kinases (kinome) (Homo sapiens, UniProt Q8TD19); assay: as above; assay type: binding; details: NEK9 (Other), IPI00301609
T7 construct: determined in kinobeads assays with mass spectrometry detection of kinases as described previously; endogenous in cells; host or cells: cell lysate
T7 sequence (Q8TD19 1-979): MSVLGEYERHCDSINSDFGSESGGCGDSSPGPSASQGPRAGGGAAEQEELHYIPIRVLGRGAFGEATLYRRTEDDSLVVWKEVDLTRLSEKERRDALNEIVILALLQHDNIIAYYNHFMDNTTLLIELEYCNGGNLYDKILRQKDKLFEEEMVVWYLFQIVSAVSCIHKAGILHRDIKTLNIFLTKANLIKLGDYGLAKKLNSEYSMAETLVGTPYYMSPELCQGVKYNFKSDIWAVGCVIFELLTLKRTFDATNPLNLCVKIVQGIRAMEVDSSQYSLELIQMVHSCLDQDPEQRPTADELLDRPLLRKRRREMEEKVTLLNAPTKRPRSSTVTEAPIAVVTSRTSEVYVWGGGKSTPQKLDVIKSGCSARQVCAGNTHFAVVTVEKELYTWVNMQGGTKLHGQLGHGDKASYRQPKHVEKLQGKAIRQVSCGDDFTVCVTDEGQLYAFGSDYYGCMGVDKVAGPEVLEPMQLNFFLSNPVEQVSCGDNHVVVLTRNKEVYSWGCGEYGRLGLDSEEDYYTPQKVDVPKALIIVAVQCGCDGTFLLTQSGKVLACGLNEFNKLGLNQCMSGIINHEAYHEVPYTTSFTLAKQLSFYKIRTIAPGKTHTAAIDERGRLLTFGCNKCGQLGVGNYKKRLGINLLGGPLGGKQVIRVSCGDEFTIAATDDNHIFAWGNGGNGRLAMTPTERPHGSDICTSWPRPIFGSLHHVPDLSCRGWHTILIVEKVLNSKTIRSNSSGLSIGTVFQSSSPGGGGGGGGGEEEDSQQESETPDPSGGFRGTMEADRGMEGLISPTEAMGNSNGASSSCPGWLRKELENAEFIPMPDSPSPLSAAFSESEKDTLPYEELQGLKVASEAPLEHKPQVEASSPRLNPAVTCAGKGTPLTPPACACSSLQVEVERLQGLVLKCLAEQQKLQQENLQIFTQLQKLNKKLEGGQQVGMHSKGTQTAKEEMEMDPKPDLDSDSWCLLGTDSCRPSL
From the text: as §1

[8] = system: Akt serine-473 phosphorylation in HEK293T/17 cells; assay: In vitro phospho-Akt cellular assay (pAkt S473); assay type: cell-based; details: Homo sapiens, Table 6, 2 hours, Akt Ser473, read-out: pAKT (Phospho-Akt cell assay data, activity level)
From the text: In Vitro Phospho-S6 and Phospho-Akt Cellular Assay
Activation of mTOR signaling results in phosphorylation of several downstream targets. In cells, mTOR exists in two different protein complexes. The mTOR Complex-1 (mTORC1) phosphorylates and activates S6 Kinase 1 (S6K1) and S6 Kinase 2 (S6K2) (also known as p70S6K) which then phosphorylate S6 Ribosomal Protein (S6RP) (also known as RPS6). S6RP is phosphorylated on serine 235, serine 236, serine 240 and serine 244 by both pS6K1 and pS6K2. The mTOR Complex-2 (mTORC2) phosphorylates AKT on serine 473 which activates the AKT signaling pathway.
The assay measures a test compound's inhibition of S6RP serine-240/244 phosphorylation and inhibition of Akt serine-473 phosphorylation in human embryonic kidney derived HEK293T/17 cells (ATCC CRL-11268).
The HEK293T/17 cell line is maintained in DMEM media (Invitrogen catalogue number 41965-039) supplemented with 10% FCS at 37° C. in a 5% CO2 humidified incubator.
Cells are seeded in 96-well plates at 40,000 cells/well (pS6RP S240/244 assay) or 80,000 cells/well (pAkt 5473 assay) in 90 μl growth media (DMEM, 2% FCS). Plates are incubated for 1 hour in a humidified incubator to allow the cells to adhere. Cells are treated with 8 concentrations of test compounds or DMSO alone for controls (final DMSO concentration 0.1%) and incubated at 37° C. for 2 hours. Then 20 μl of 5× concentrated lysis buffer (750 mM NaCl, 100 mM Tris pH7.4, 5 mM EDTA, 5 mM EGTA, 5% Triton X-100) is added, plates are sealed and incubated for 15 minutes at 4° C. with gentle shaking. After cell lysis, 25 μl cell lysate is transferred to a MesoScale plate coated with an antibody to pS6RP Ser240/244 (MesoScale Discovery K150DGD-3) or an antibody to pAkt Ser 473 (MesoScale Discovery K151DGD-3). Plates have been blocked before by incubation with 150 μl MesoScale Discovery Blocking Solution-A for 1 hour at room temperature followed by washing with 150 μl 1× Tris wash buffer per well. After the transfer of the cell lysate to the MSD plate, the pS6RP (or pAkt) protein is captured on the coated antibody by incubation at room temperature for 1 hour with gentle shaking. After the capture step the plate is washed three times with 150 μl of 1× Tris wash buffer per well. Then 25 μl detection antibody conjugated with a Sulfo-Tag is added and incubated for 1 hour at room temperature with gentle shaking. Subsequently the antibody solution is removed and the plate is washed 3 times with 150 μl 1× Tris wash buffer per well and 150 μl Read buffer is added. The plates are analysed on a MSD 2400 Plate Reader (MesoScale Discovery). Data analysis is performed using nonlinear regression for a sigmoidal dose-response with a variable slope.

IC50 [1] [µM]	IC50 [2] [µM]	IC50 [3] [µM]	IC50 [4] [µM]	IC50 [5] [µM]	IC50 [6] [µM]	Structure (SMILES)	IC50 [7] [µM]	IC50 [8] [µM]
> 10	> 10	> 10	> 10	> 10	> 10	C[C@H]1COCCN1c1nc(-c2ccc(NC(=O)N[C@H]3CCC[C@@H]3O)cc2)cc(-c2cc(F)ccc2S(C)(=O)=O)n1 [Example 76, 1-(4-(6-(5-fluoro-2-(methylsulfonyl)phenyl)-2-((S)-3-methylmorpholino)pyrimidin-4-yl)phenyl)-3-((1S,2S)-2-hydroxycyclopentyl)urea]	> 10	< 0.1
> 10	> 10	> 10	> 10	> 10	> 10	C[C@H]1COCCN1c1cc(-c2ccccn2)nc(-c2ccc(NC(=O)NCCO)cc2)n1 [Example 43, (S)-1-(2-hydroxyethyl)-3-(4-(4-(3-methylmorpholino)-6-(pyridin-2-yl)pyrimidin-2-yl)phenyl)urea]	> 10	< 0.1
